# In patent US12617767B2, “Crystalline forms of somatostatin modulators” (Crinetics Pharmaceuticals, Inc., priority 2019, dated 2026):
# Marks after values point to notes of the source that are not given here.
# Key:
# Assay type in all cases: physicochemical
# [1] = Stability of XRPD pattern on drying; conditions: for XRPD pattern upon drying: dimesylate
# Experimental: Short term slurries were carried out at two temperatures in 14 solvents. About 25 mg solid was added to a 2 mL vial followed by 0.70 mL of solvent. If all solids dissolved, more solid was added until a slurry was formed within reason. Slurries were stirred at constant temperature for four days (ambient temperature, 21-23° C.; or high temperature, 50° C.). After stirring for four days, solids were allowed to settle and were then recovered for XRPD analysis. XRPD analysis was performed on the wet cake, and if a new pattern was observed, the sample was dried in a vacuum oven at 50° C. for a minimum of 4 hours, then the dried sample was analyzed by XRPD.
# Stability on Drying: A sample of Pattern B was prepared on an XRPD sample holder and analysed by XRPD to create a baseline. The disk was then left in a vacuum oven at 50° C. under static vacuum for 3 days. On the third day, the sample was removed from the oven and the “dry” pattern was recorded immediately.
# (§1) Compound A⋅2MSA (Pattern A) was slurried in EtOH overnight at room temperature (ca. 16 hours). […] The bulk was dried in a vacuum oven at 50° C. under dynamic vacuum for 4.5 hours. The dried solids were removed from the oven and a “dry” XRPD analysis was collected.
# [2] = Storage at ambient conditions (XRPD)
# Experimental: Characterization after storage under ambient conditions: Pattern B was left at ambient conditions (21-22° C., 10-40% RH) for a week then characterized by)(RFD, TGA/DSC, and water content measured by Karl-Fischer titration. […] The water content was confirmed by KF titration which yielded a value of 4.20 wt. %.
# Compound A⋅2MSA (Pattern A, 0.2622 g) was added to a 20 mL vial with a stir bar. Fifteen volumes (3.93 mL) of EtOH was added and the slurry was stirred overnight (˜20 hours). The slurry was sampled to confirm the correct pattern was generated, then the solids were collected by filtration. The resultant yellow solid was dried in a vacuum oven at 50° C. under dynamic vacuum for 2 hours, then under static vacuum overnight (˜16 hours) to yield 0.2015 g (77% yield). The in-situ sample drawn was dried for 3 hours then the solid was used for characterization by solution ^1H-NMR spectroscopy and simultaneous TGA/DSC. The bulk was dried overnight and used for stand-alone DSC, and thermal treatment.
# as §1
# Compound A⋅2MSA (Pattern A, 0.2659 g) was added to a 20 mL vial with a stir bar. Twenty-five volumes (6.65 mL) of ACN was added and the slurry was stirred overnight (˜20 hours). The slurry was sampled to confirm the correct pattern was generated, then the solids were collected by filtration. The resultant yellow solid was dried in a vacuum oven at 50° C. under dynamic vacuum for 2 hours, then under static vacuum overnight (˜16 hours) to yield 0.2255 g (85% yield). The sample drawn was dried for 3 hours then the solid was used for characterization by solution ^1H-NMR spectroscopy and simultaneous TGA/DSC. The bulk was dried overnight and used for stand-alone DSC.
# [3] = Equilibrium solubility in simulated fluids and water at 37° C.; conditions: for comments / Concentration: 24 hrs; for Concentration: mg of Compound A (free base); for Concentration / pH (24 hr): dimesylate
# Experimental: The solubility Compound A⋅2MSA, Patterns A, B and I, was measured in water, fasted state simulated gastric fluid (FaSSGF) and fasted state simulated intestinal fluid (FaSSIF) at 37° C. by slurrying in the respective media for 24 hours. 1.5 mL of the fluid was stirred at 37° C. About 5 mg of the specified solid was added to FaSSIF and a thin slurry was immediately formed. As a test, approximately 80 and 60 mg of Pattern A was added to 1.5 mL of water and FaSSGF, respectively without formation of a slurry. Therefore, about 10 mg of the desired Pattern was added to water and FaSSGF solutions. The samples were allowed to stir at 37° C. for 24 hrs. The stir bars were removed from the FaSSIF vials and the solids allowed to settle for 0.5 hours at 37° C. The supernatant/solutions were syringe filtered and recovered for analysis by HPLC as well as for pH measurement.
# [4] = Kinetic solubility studies in FaSSIF and FeSSIF; conditions: FeSSIF
# Experimental: The solubility of the dimesylate (Pattern B) and mono-HCl salts of Compound A was determined in FaSSIF (pH 6.5) at 37° C. after a slurry time of 5, 20 and 40 minutes. FaSSIF was warmed to 37° C. and added to a vial of ca. 9 mg of the salt to mark t=0. The mixture was kept stirring at 37° C. and a sample drawn with a syringe at t+5, 20 and 40 minutes. The samples were syringe filtered and the filtrate was diluted 2× to ensure no precipitation while waiting for HPLC analysis. The pH of the solution collected at 40 minutes was measured. The slurry was sampled again the following day and the supernatant from syringe filtration was analyzed directly by HPLC without dilution. The same experiment was run with FeSSIF (pH 5.0).
# [5] = Dynamic Vapor Sorption (DVS); conditions: between 2% and 95% Relative Humidity (RH); dimesylate
# Experimental: Dynamic Vapor Sorption (DVS) was done using a DVS Intrinsic 1. The sample is loaded into a sample pan and suspended from a microbalance. A typical sample mass for DVS measurement is 25 mg. Nitrogen gas bubbled through distilled water provides the desired relative humidity.
# A typical measurement comprises the steps: • 1—Equilibrate at 50% RH • 2-50% to 2%. (50%, 40%, 30%, 20%, 10% and 2%) • a. Hold minimum of 5 mins and maximum of 240 minutes at each humidity. The pass criteria is less than 0.002% change • 3-2% to 95% (2%, 10%, 20%, 30%, 40%, 50%, 60%, 70%, 80%, 90%, 95%) • a. Hold minimum of 5 mins and maximum of 240 minutes at each humidity. The pass criteria is less than 0.002% change • 4-95% to 2% (95%, 80%, 70%, 60%, 50%, 40%, 30%, 20%, 10%, 2%) • a. Hold minimum of 5 mins and maximum of 240 minutes at each humidity. The pass criteria is less than 0.002% change • 5-2% to 50% (2%, 10%, 20%, 30%, 40%, 50%) • a. Hold minimum of 5 mins and maximum of 240 minutes at each humidity. The pass criteria is less than 0.002% change Dynamic Vapor Sorption Isotherm Plots of Solid Forms of Compound A⋅2MSA
# [6] = solids from short term slurries, vacuum oven at 50° C., minimum of 4 hours
# [7] = solids from amorphous slurry or antisolvent experiments
compound,measurement,setting,value
"CS(=O)(=O)O.CS(=O)(=O)O.N#Cc1cccc(-c2ccc3ncc(-c4cc(F)cc(F)c4)c(N4CCC(N)CC4)c3c2)c1O [Pattern D, 3-(4-(4-aminopiperidin-1-yl)-3-(3,5-difluorophenyl)quinolin-6-yl)-2-hydroxybenzonitrile dimesylate]",XRPD pattern upon drying,[1]; [6],converted to Pattern A
"CS(=O)(=O)O.CS(=O)(=O)O.N#Cc1cccc(-c2ccc3ncc(-c4cc(F)cc(F)c4)c(N4CCC(N)CC4)c3c2)c1O [Pattern E, 3-(4-(4-aminopiperidin-1-yl)-3-(3,5-difluorophenyl)quinolin-6-yl)-2-hydroxybenzonitrile dimesylate]",XRPD pattern upon drying,[1]; [6],converted to Pattern A
"CS(=O)(=O)O.CS(=O)(=O)O.N#Cc1cccc(-c2ccc3ncc(-c4cc(F)cc(F)c4)c(N4CCC(N)CC4)c3c2)c1O [Pattern C, 3-(4-(4-aminopiperidin-1-yl)-3-(3,5-difluorophenyl)quinolin-6-yl)-2-hydroxybenzonitrile dimesylate]",XRPD pattern upon drying,[1]; [6],stable upon drying
same,XRPD pattern after drying,[1]; vacuum oven at 50° C. under dynamic vacuum for 4.5 hours,a combination of Patterns C and I
same,XRPD pattern of wet sample left at ambient conditions,[2]; 24 hours,did not change
same,XRPD pattern after storage at ambient conditions,"[2]; bulk, 6 days at ambient conditions, dimesylate",a pattern resembling Pattern I
same,comments,[3]; FaSSGF (pH 1.70),dissolved
same,Concentration,"[3]; FaSSGF (pH 1.70), above calibration range",>7.75^b mg/mL
same,pH (24 hr),[3]; FaSSGF (pH 1.70),1.84
same,comments,[3]; FaSSIF (pH 6.48),disproportionated
same,Concentration,[3]; FaSSIF (pH 6.48),0.010 mg/mL
same,pH (24 hr),[3]; FaSSIF (pH 6.48),6.06
same,comments,[3]; water,dissolved
same,Concentration,"[3]; water, above calibration range",>6.59^b mg/mL
same,pH (24 hr),[3]; water,3.09
"CS(=O)(=O)O.CS(=O)(=O)O.N#Cc1cccc(-c2ccc3ncc(-c4cc(F)cc(F)c4)c(N4CCC(N)CC4)c3c2)c1O [Pattern M, 3-(4-(4-aminopiperidin-1-yl)-3-(3,5-difluorophenyl)quinolin-6-yl)-2-hydroxybenzonitrile dimesylate]",XRPD pattern upon drying,[1]; [7],lost crystallinity upon drying
"CS(=O)(=O)O.CS(=O)(=O)O.N#Cc1cccc(-c2ccc3ncc(-c4cc(F)cc(F)c4)c(N4CCC(N)CC4)c3c2)c1O [Pattern H, 3-(4-(4-aminopiperidin-1-yl)-3-(3,5-difluorophenyl)quinolin-6-yl)-2-hydroxybenzonitrile dimesylate]",XRPD pattern upon drying,[1]; [6],converted to Pattern I
"CS(=O)(=O)O.CS(=O)(=O)O.N#Cc1cccc(-c2ccc3ncc(-c4cc(F)cc(F)c4)c(N4CCC(N)CC4)c3c2)c1O [Compound A⋅2MSA, 3-(4-(4-aminopiperidin-1-yl)-3-(3,5-difluorophenyl)quinolin-6-yl)-2-hydroxybenzonitrile dimesylate]",solubility relative to the HCl salt,[4],12 ×
"CS(=O)(=O)O.CS(=O)(=O)O.N#Cc1cccc(-c2ccc3ncc(-c4cc(F)cc(F)c4)c(N4CCC(N)CC4)c3c2)c1O [Pattern F, 3-(4-(4-aminopiperidin-1-yl)-3-(3,5-difluorophenyl)quinolin-6-yl)-2-hydroxybenzonitrile dimesylate]",XRPD pattern upon drying,[1]; [6],converted to Pattern I
"CS(=O)(=O)O.CS(=O)(=O)O.N#Cc1cccc(-c2ccc3ncc(-c4cc(F)cc(F)c4)c(N4CCC(N)CC4)c3c2)c1O [Pattern N, 3-(4-(4-aminopiperidin-1-yl)-3-(3,5-difluorophenyl)quinolin-6-yl)-2-hydroxybenzonitrile dimesylate]",XRPD pattern upon drying,[1]; [7],stable upon drying
"CS(=O)(=O)O.CS(=O)(=O)O.N#Cc1cccc(-c2ccc3ncc(-c4cc(F)cc(F)c4)c(N4CCC(N)CC4)c3c2)c1O [Pattern O, 3-(4-(4-aminopiperidin-1-yl)-3-(3,5-difluorophenyl)quinolin-6-yl)-2-hydroxybenzonitrile dimesylate]",XRPD pattern upon drying,[1]; [7],stable upon drying
"CS(=O)(=O)O.CS(=O)(=O)O.N#Cc1cccc(-c2ccc3ncc(-c4cc(F)cc(F)c4)c(N4CCC(N)CC4)c3c2)c1O [Pattern A, 3-(4-(4-aminopiperidin-1-yl)-3-(3,5-difluorophenyl)quinolin-6-yl)-2-hydroxybenzonitrile dimesylate]",XRPD pattern upon drying,[1]; [6],stable upon drying
same,reversible water uptake (DVS),[5],9.8 % w/w
same,amount added to 1.5 mL without formation of a slurry,[3]; FaSSGF,~60 mg
same,amount added to 1.5 mL without formation of a slurry,[3]; water,approximately 80 mg
"CS(=O)(=O)O.CS(=O)(=O)O.N#Cc1cccc(-c2ccc3ncc(-c4cc(F)cc(F)c4)c(N4CCC(N)CC4)c3c2)c1O [Pattern G, 3-(4-(4-aminopiperidin-1-yl)-3-(3,5-difluorophenyl)quinolin-6-yl)-2-hydroxybenzonitrile dimesylate]",XRPD pattern upon drying,[1]; [6],converted to Pattern I
